What is called Ki is a dissociation constant, usually derived from enzyme kinetics or from competition with a known ligand.

Activity calls are given as the source filed them. The calls are words filed in the database; no cut-off is given here.

In one assay the test system is Pseudomonas putida. As to the kind of experiment: Inhibition of recombinant Pseudomonas putida C-terminal His-tagged phosphonatase.
The next assay deals with Saccharomyces cerevisiae. As to the kind of experiment: Inhibition of yeast alcohol dehydrogenase.
Assay [1] can be described thus: Binding affinity to recombinant Bacteroides fragilis phosphonopyruvate decarboxylase using phosphonopyruvate as substrate.
Assay [2] relates to Bacteroides fragilis. Kind of assay: Irreversible inhibition of recombinant Bacteroides fragilis phosphonopyruvate decarboxylase at 10 to 50 uM using phosphonopyruvate as substrate.
For assay [3], the system named is Bacteroides fragilis. Kind of assay: Irreversible inhibition of recombinant Bacteroides fragilis phosphonopyruvate decarboxylase at 10 uM using phosphonopyruvate as substrate after overnight dialysis.
Assay [4] relates to Bacteroides fragilis. As to the kind of experiment: Inhibition of recombinant Bacteroides fragilis phosphonopyruvate decarboxylase at 35 uM incubated for 3 mins by UV-Vis spectrophotometric analysis.
The test system of assay [5] is Bacteroides fragilis. As to the kind of experiment: Inhibition of recombinant Bacteroides fragilis phosphonopyruvate decarboxylase at 35 uM incubated for 3 mins by CD spectropolarimetric analysis.
Assay [6] has as its system Bacteroides fragilis. Kind of assay: Inhibition of recombinant Bacteroides fragilis phosphonopyruvate decarboxylase assessed as fluoride ion release up to 75 uM incubated for 30 mins by TISAB 2 solution based ion-selective electrode assay.

Regarding `O=C(O)C(O)(O)C(F)(F)P(=O)(O)O`, the inhibition entry with Pseudomonas putida and in the assay with Saccharomyces cerevisiae was “inactive” throughout. Also, the Ki in assay [1] came to 600 nM. Also, the TDI entry with Bacteroides fragilis [2] is “Active”. Further, the inhibition result in the assay on Bacteroides fragilis [3], with Bacteroides fragilis [4], in the assay with Bacteroides fragilis [5] and in the assay with Bacteroides fragilis [6] was “Active” throughout.

Values taken from ChEMBL document CHEMBL4052755, “Phosphonodifluoropyruvate is a mechanism-based inhibitor of phosphonopyruvate decarboxylase from Bacteroides fragilis” (Bioorg Med Chem, 2017).
